Laboratory results published in BindingDB's records for doi:10.7270/Q2RJ4GVG (The Scripps Research Institute Molecular Screening Center, 2007).

Target: T1, Isoform 2 of Nuclear receptor ROR-alpha (Alpha-2) (Homo sapiens, UniProt P35398)
T1 sequence (P35398 whole entry): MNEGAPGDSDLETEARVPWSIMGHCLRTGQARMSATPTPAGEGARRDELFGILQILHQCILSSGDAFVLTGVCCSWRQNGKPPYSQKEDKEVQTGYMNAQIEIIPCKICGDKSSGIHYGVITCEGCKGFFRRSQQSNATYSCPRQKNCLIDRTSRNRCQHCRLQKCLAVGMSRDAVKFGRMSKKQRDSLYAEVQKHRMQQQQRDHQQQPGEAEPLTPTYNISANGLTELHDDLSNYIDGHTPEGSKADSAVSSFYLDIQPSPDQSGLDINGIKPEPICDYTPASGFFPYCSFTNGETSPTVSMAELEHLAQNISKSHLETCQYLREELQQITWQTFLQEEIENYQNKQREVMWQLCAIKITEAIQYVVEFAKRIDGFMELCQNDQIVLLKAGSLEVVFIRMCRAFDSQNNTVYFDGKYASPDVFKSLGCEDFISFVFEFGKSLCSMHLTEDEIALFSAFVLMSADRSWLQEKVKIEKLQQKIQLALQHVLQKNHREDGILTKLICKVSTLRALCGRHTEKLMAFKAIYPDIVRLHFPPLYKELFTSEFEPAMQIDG
Test: activators of RORA nuclear receptor, dose response, cell-based, CHO-K1, Gal4-RORA LBD, luciferase luminescence (AID 681)

Row | SMILES | EC50 | EC50 (inactive by the depositor's call)
1 | O=C(Nc1ccc2nc(-c3ccc(Br)o3)[nH]c2c1)c1cccs1 [SMR000046012] | 4.09 µM | 
2 | O=C(CSc1nc[nH]n1)Nc1nnc(-c2ccccc2)s1 [SMR000091719] |  | 12.1 µM

More lines, now with the values ahead:

Row | EC50 | EC50 (inactive by the depositor's call) | SMILES
3 | > 99 µM |  | Oc1ccc(Cl)cc1C=Nc1nc2ccccc2[nH]1 [SMR000103225]
4 | 5.11 µM |  | Cc1nc(N=CN(C)C)sc1C(=O)Nc1ccccc1 [SMR000107046]
5 | 1.67 µM |  | Cc1c(C(=O)OCC2CCCO2)[nH]c2c1C(=O)CC(c1ccco1)C2 (stereo not given) [oxolan-2-ylmethyl 6-(furan-2-yl)-3-methyl-4-oxo-1,5,6,7-tetrahydroindole-2-carboxylate]
